Broadly, the Ki is the equilibrium dissociation constant of an inhibitor or competing ligand from its target.

Structures can show the parent of a compound that is named as a salt.

The assay deals with T1, HGFR (Homo sapiens, UniProt P08581).
T1 construct: purchased Upstate 14-526
T1 sequence (P08581 974-1390 limits assumed): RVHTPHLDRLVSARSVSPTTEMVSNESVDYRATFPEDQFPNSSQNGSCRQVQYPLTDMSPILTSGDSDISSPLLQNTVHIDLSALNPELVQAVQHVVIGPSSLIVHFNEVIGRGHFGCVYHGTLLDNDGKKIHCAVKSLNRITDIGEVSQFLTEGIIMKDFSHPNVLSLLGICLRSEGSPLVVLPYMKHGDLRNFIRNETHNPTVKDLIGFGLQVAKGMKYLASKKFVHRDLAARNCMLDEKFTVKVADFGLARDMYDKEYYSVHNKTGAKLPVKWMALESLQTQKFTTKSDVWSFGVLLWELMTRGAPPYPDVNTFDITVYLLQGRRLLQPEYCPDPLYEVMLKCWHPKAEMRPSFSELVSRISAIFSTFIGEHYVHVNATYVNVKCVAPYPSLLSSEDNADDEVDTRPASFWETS
Nature of the assay: HGFR continuous-coupled spectrophotometric assay (tyrosine kinase activity on Met-2 substrate peptide). The format is biochemical. Particulars: HGFR 50 nM, Met-2 peptide 0.5 mM, ATP 300 μM, 37° C., absorbance 340 nm; read-out: Ki.
Consider `CC(c1ccc2c(c1)OCCO2)n1nnc2ncc(-c3cnn(C)c3)nc21` (stereo in doubt) [Example 60, 1-[(S)-1-(2,3-Dihydro-benzo[1,4]dioxin-6-yl)-ethyl]-6-(1-methyl-1H-pyrazol-4-yl)-1H-[1,2,3]triazolo[4,5-b]pyrazine], for which the inhibition constant (Ki) came to 30 nM.

`CC(CO)Nc1cnc2nnn(Cc3ccc4ncccc4c3)c2n1` (stereo in doubt) [Example 120, (2R)-2-{[1-(quino-lin-6-yl-methyl)-1H-[1,2,3]tri-azolo[4,5-b]pyra-zin-6-yl]ami-no}propan-1-ol]: the Ki is 41 nM.

Take `N#CC1CCN(C2CCN(c3cnc4nnn(Cc5ccc6ncccc6c5)c4n3)C2)CC1` (stereo in doubt) [Example 148, 1-{(3R)-1-[1-(quino-lin-6-yl-methyl)-1H-[1,2,3]tri-azolo[4,5-b]pyra-zin-6-yl]pyrro-lidin-3-yl}pipe-ridine-4-carbo-nitrile]: the Ki stood at 30 nM.

As for `OC1CCN(C2CCN(c3cnc4nnn(Cc5ccc6ncccc6c5)c4n3)C2)CC1` (stereo in doubt) [Example 170, 1-[(3R)-1-[1-(quino-lin-6-yl-methyl)-1H-[1,2,3]tri-azolo[4,5-b]pyra-zin-6-yl]pyrro-lidin-3-yl}pipe-ridin-4-ol], the Ki turned out to be 21 nM.

Turning to `CC(c1ccc2ncccc2c1)n1nnc2ncc(Br)nc21` (stereo in doubt) [Example 212, 6-[(S)-1-(6-Bromo-[1,2,3]triazolo [4,5-b]pyrazin-1-yl)-ethyl]-quinoline], the Ki was 42 nM.

With `c1cnc2ccc(Cn3nnc4ncc(-c5cnn(C6CNC6)c5)nc43)cc2c1` [Example 1, 6-((6-(1-(azetidin-3-yl)-1H-pyrazol-4-yl)-1H-[1,2,3]-triazolo[4,5-b]pyrazin-1-yl)methyl)-quinoline], the Ki worked out at 8 nM.

For the molecule `NCCn1cc(-c2cnc3nnn(Cc4ccc5ncccc5c4)c3n2)cn1` [Example 2, 2-(4-(3-(quinolin-6-ylmethyl)-3H-[1,2,3]triazolo[4,5-b]pyrazin-5-yl)-1H-pyrazol-1-yl)ethanamine], the Ki was determined as 11 nM.

Consider `c1cnc2ccc(Cn3nnc4ncc(-c5cnn(CC6CCNCC6)c5)nc43)cc2c1` [Example 4], for which the Ki was determined as 69 nM.

Consider `COCCn1cc(-c2cnc3nnn(Cc4ccc5ncccc5c4)c3n2)cn1` [Example 6, 6-((6-(1-(2-methoxyethyl)-1H-pyrazol-4-yl)-1H-[1,2,3]triazolo[4,5-b]pyrazin-1-yl)methyl)-quinoline], for which the Ki turned out to be 11 nM.

Turning to `O=C(NC1CCNCC1)c1ccc(-c2cnc3nnn(Cc4ccc5ncccc5c4)c3n2)cc1` [Example 10, N-(piperidin-4-yl)-4-(3-(quinolin-6-ylmethyl)-3H-[1,2,3]triazolo[4,5-b]pyrazin-5-yl)benzamide], the Ki came to 4 nM.

In the case of `NCCNC(=O)c1ccc(-c2cnc3nnn(Cc4ccc5ncccc5c4)c3n2)cc1` [Example 11, N-(2-aminoethyl)-4-(3-(quinolin-6-ylmethyl)-3H-[1,2,3]triazolo[4,5-b]pyrazin-5-yl)benzamide], the Ki came out at 4 nM.

In the case of `CN(C)CCN(C)C(=O)c1ccc(-c2cnc3nnn(Cc4ccc5ncccc5c4)c3n2)cc1` [Example 12, N-(2-(dimethylamino)ethyl)-N-methyl-4-(3-(quinolin-6-ylmethyl)-3H-[1,2,3]triazolo[4,5-b]pyrazin-5-yl)benzamide], the Ki worked out at 38 nM.

In the case of `CN(C)CCNC(=O)c1ccc(-c2cnc3nnn(Cc4ccc5ncccc5c4)c3n2)cc1` [Example 13, N-(2-(dimethylamino)ethyl)-4-(3-(quinolin-6-ylmethyl)-3H-[1,2,3]triazolo[4,5-b]pyrazin-5-yl)benzamide], the Ki is 3 nM.

On to `CCOC(=O)c1cnn(-c2cnc3nnn(Cc4ccc5ncccc5c4)c3n2)c1` [Example 14, ethyl 1-(3-(quinolin-6-ylmethyl)-3H-[1,2,3]triazolo[4,5-b]pyrazin-5-yl)-1H-pyrazole-4-carboxylate], for which the Ki worked out at 40 nM.

With `Cc1cn(-c2cnc3nnn(Cc4ccc5ncccc5c4)c3n2)cn1` [Example 16, 6-((6-(4-methyl-1H-imidazol-1-yl)-1H-[1,2,3]triazolo[4,5-b]pyrazin-1-yl)methyl)-quinoline], the Ki is 3 nM.

On to `O=C(c1ccc(-c2cnc3nnn(Cc4ccc5ncccc5c4)c3n2)cc1)N1CCOCC1` [Example 17, morpholino(4-(3-(quinolin-6-ylmethyl)-3H-[1,2,3]triazolo[4,5-b]pyrazin-5-yl)phenyl)-methanone], for which the Ki came to 46 nM.

With `CNC(=O)c1cccc(-c2cnc3nnn(Cc4ccc5ncccc5c4)c3n2)c1` [Example 18, N-methyl-3-(3-(quinolin-6-ylmethyl)-3H-[1,2,3]triazolo[4,5-b]pyrazin-5-yl)benzamide], the Ki stood at 5 nM.

For the molecule `CNC(=O)c1ccc(-c2cnc3nnn(Cc4ccc5ncccc5c4)c3n2)cc1` [Example 19, N-methyl-4-(3-(quinolin-6-ylmethyl)-3H-[1,2,3]triazolo[4,5-b]pyrazin-5-yl)benzamide], the Ki came to 3 nM.

In the case of `COc1cccc(-c2cnc3nnn(Cc4ccc5ncccc5c4)c3n2)c1` [Example 20, 6-((6-(3-methoxyphenyl)-1H-[1,2,3]triazolo[4,5-b]pyrazin-1-yl)methyl)-quinoline], the Ki was found to be 3 nM.

As to `COc1ccc(-c2cnc3nnn(Cc4ccc5ncccc5c4)c3n2)cc1` [Example 21, 6-((6-(4-methoxyphenyl)-1H-[1,2,3]triazolo[4,5-b]pyrazin-1-yl)methyl)-quinoline], the Ki is 4 nM.

Turning to `c1cnc2ccc(Cn3nnc4ncc(-n5cccn5)nc43)cc2c1` [Example 22, 6-((6-(1H-pyrazol-1-yl)-1H-[1,2,3]triazolo[4,5-b]pyrazin-1-yl)methyl)-quinoline], the Ki worked out at 12 nM.

Regarding `CN(C)C1CCN(c2cnc3nnn(Cc4ccc5ncccc5c4)c3n2)CC1` [Example 27], the Ki was determined as 45 nM.

For the molecule `OC1CCN(c2cnc3nnn(Cc4ccc5ncccc5c4)c3n2)CC1` [Example 28, 1-(3-(quinolin-6-ylmethyl)-3H-[1,2,3]triazolo[4,5-b]pyrazin-5-yl)piperidin-4-ol], the inhibitory constant (Ki) was 15 nM.

Turning to `CN(C)[C@H]1CCN(c2cnc3nnn(Cc4ccc5ncccc5c4)c3n2)C1` [Example 29, (S)-N,N-dimethyl-1-(3-(quinolin-6-ylmethyl)-3H-[1,2,3]triazolo[4,5-b]pyrazin-5-yl)pyrrolidin-3-amine], the Ki is 24 nM.

In the case of `CN(C)[C@@H]1CCN(c2cnc3nnn(Cc4ccc5ncccc5c4)c3n2)C1` [Example 30, (R)-N,N-dimethyl-1-(3-(quinolin-6-ylmethyl)-3H-[1,2,3]triazolo[4,5-b]pyrazin-5-yl)pyrrolidin-3-amine], the Ki stood at 8 nM.

Turning to `N[C@@H]1CCCN(c2cnc3nnn(Cc4ccc5ncccc5c4)c3n2)C1` [Example 31, (R)-1-(3-(quinolin-6-ylmethyl)-3H-[1,2,3]triazolo[4,5-b]pyrazin-5-yl)piperidin-3-amine dihydrochloride], the Ki came to 59 nM.

As for `N[C@H]1CCCN(c2cnc3nnn(Cc4ccc5ncccc5c4)c3n2)C1` [Example 32, (S)-1-(3-(quinolin-6-ylmethyl)-3H-[1,2,3]triazolo[4,5-b]pyrazin-5-yl)piperidin-3-amine dihydrochloride], the Ki came to 69 nM.

For the molecule `c1cnc2ccc(Cn3nnc4ncc(N5CCNCC5)nc43)cc2c1` [Example 33, 6-((6-(piperazin-1-yl)-1H-[1,2,3]triazolo[4,5-b]pyrazin-1-yl)methyl)quinoline], the Ki was 10 nM.

Regarding `CC(C)(C)OC(=O)NC1CCN(c2cnc3nnn(Cc4ccc5ncccc5c4)c3n2)CC1` [Example 34, tert-butyl 1-(3-(quinolin-6-ylmethyl)-3H-[1,2,3]triazolo[4,5-b]pyrazin-5-yl)piperidin-4-ylcarbamate], the Ki is 33 nM.

With `OCc1ccc(-c2cnc3nnn(Cc4ccc5ncccc5c4)c3n2)cc1` [Example 36, (4-(3-(quinolin-6-ylmethyl)-3H-[1,2,3]triazolo[4,5-b]pyrazin-5-yl)phenyl)methanol], the Ki came to 2 nM.

For the molecule `OCc1cccc(-c2cnc3nnn(Cc4ccc5ncccc5c4)c3n2)c1` [Example 37, (3-(3-(quinolin-6-ylmethyl)-3H-[1,2,3]triazolo[4,5-b]pyrazin-5-yl)phenyl)methanol], the Ki was 4 nM.

As to `NCc1ccc(-c2cnc3nnn(Cc4ccc5ncccc5c4)c3n2)cc1` [Example 38, (4-(3-(quinolin-6-ylmethyl)-3H-[1,2,3]triazolo[4,5-b]pyrazin-5-yl)phenyl)methanamine], the Ki stood at 3 nM.

For `O=C(O)c1ccc(-c2cnc3nnn(Cc4ccc5ncccc5c4)c3n2)cc1Cl` [Example 39, 2-chloro-4-(3-(quinolin-6-ylmethyl)-3H-[1,2,3]triazolo[4,5-b]pyrazin-5-yl)benzoic acid], the Ki amounted to 21 nM.

`O=C(O)c1cc(F)cc(-c2cnc3nnn(Cc4ccc5ncccc5c4)c3n2)c1` [Example 40, 3-fluoro-5-(3-(quinolin-6-ylmethyl)-3H-[1,2,3]triazolo[4,5-b]pyrazin-5-yl)benzoic acid]: the Ki amounted to 12 nM.

For `Brc1cnc2nnn(Cc3ccc4c(c3)CCO4)c2n1` [Example 41, 6-Bromo-1-(2,3-dihydro-benzofuran-5-ylmethyl)-1H-[1,2,3]triazolo[4,5-b]pyrazine], the Ki was 36 nM.

In the case of `N[C@@H]1CCN(c2cnc3nnn(Cc4ccc5c(c4)CCO5)c3n2)C1` [Example 42, (R)-1-[3-(2,3-Dihydro-benzofuran-5-ylmethyl)-3H-[1,2,3]triazolo[4,5-b]pyrazin-5-yl]-pyrrolidin-3-ylamine], the Ki came to 80 nM.

As for `CN(C)[C@@H]1CCN(c2cnc3nnn(Cc4ccc5c(c4)CCO5)c3n2)C1` [Example 43, {(R)-1-[3-(2,3-Dihydro-benzofuran-5-ylmethyl)-3H-[1,2,3]triazolo[4,5-b]pyrazin-5-yl]-pyrrolidin-3-yl}-dimethyl-amine], the Ki came out at 45 nM.

Take `CCc1cnc2nnn(Cc3ccc4ncccc4c3)c2n1` [Example 52, 6-(6-Ethyl-[1,2,3]triazolo[4,5-b]pyrazin-1-ylmethyl)-quinoline]: the Ki was determined as 88 nM.

The record behind these values is patent publication US7732604B2, “Triazolopyrazine derivatives” (Pfizer Inc., priority 2006, dated 2010).
